Measurements: patent US20070032456A1, “Modulation of cell death” (priority 2003, published 2007)

Key:
[1] = in water, alcohol, and ether; cited from earlier work
IL-6 = assay: Level of expression of IL-6 in H9C2 cells treated with PLP under H2O2 oxidative stress; format: cell-based, rat
Protocol: Subcultured H9C2 cells (rat myocardium) (ATCC No. CRL-1446, from the American Type Culture Collection in Manassas, Va.) were plated into six well plates at a concentration of about 10^6 cells per well and allowed to grow overnight. The wells were then treated with concentrations of pyridoxal-5′-phosphate at concentrations of about 0, 50, 100, 250, 500, and 1000 nM in the medium. The cells were incubated for about 40 minutes.
An oxidative stressor, 1 mM H2O2 (Sigma, St. Louis, Mo.), was then added to each well. Supernantant samples were collected from the wells before addition of the 1 mM H2O2, and after 2, 4, 6, and 12 hours of exposure. The supernatant samples were stored at −20° C. until analyzed. The levels of IL-6 were then analyzed in each of the samples using test kits from Biosource Intl. (Camarillo, Calif.).

activated p38 = assay: Level of activated p38 in cells treated with PLP; format: cell-based, rat; settings: data not shown

Structure (SMILES): Cc1ncc(COP(=O)(O)O)c(C=O)c1O [pyridoxal-5′-phosphate, 3-hydroxy-2-methyl-5-[(phosphonooxy)methyl]-4-pyridinecarboxaldehyde]
- solubility [1]: essentially insoluble
- levels of IL-6 expression (IL-6; H9C2 cells (rat myocardium) pretreated about 40 minutes with 100 nM or more, then 1 mM H2O2, FIG. 1): decreased levels of IL-6 expression
- duration of the decrease of IL-6 levels (IL-6; H9C2 cells, 100 nM, after application of oxidative stress (1 mM H2O2), FIG. 2): at least 12 hours
- level of activated p38 (activated p38): did not effect the level of activated p38
